Results as given in US9168317B2, “In vivo imaging method of mood disorders” (GE Healthcare Limited, priority 2010, dated 2015).
pKi: −log10 of the molar value. Where two headings read alike, the source gives them in different places.

What was measured:
Wistar rat heart PBR = biological target: T1, Wistar rat heart PBR (Rattus norvegicus, UniProt P16257); assay: In vitro potency assay: competition against 0.3 nM [3H]PK-11195 binding
T1 construct: from tissue; host or cells: Wistar rat heart
Description: Non-radioactive analogues of in vivo imaging agents of the invention were tested.
Each test compound (dissolved in 50 mM Tris-HCl, pH 7.4, 10 mM MgCl2 containing 1% DMSO) competed for binding to Wistar rat heart PBR against 0.3 nM [^3H] […] The reaction, was carried out in 50 mM Tris-HCl, pH 7.4 10 mM MgCl2 for 15 minutes at 25° C.

[1] = In vivo biodistribution method; details: for Brain 2 min / OB 30 min: adult male Wistar rats, 1-3 MBq via lateral tail vein; for Brain 2 min: 2 min after injection; for OB 30 min: olfactory bulb
Description: Imaging agents of the invention were tested in an in vivo biodistribution model.
Adult male Wistar rats (200-300 g) were injected with 1-3 MBq of test compound via the lateral tail vein. At 2, 10, 30 or 60 min (n=3) after injection, rats were euthanised and tissues or fluids were sampled for radioactive measurement on a gamma counter.

CCN(CC)C(=O)C1CCCc2c1c1c(OC)cccc1n2CC[18F] (centres unmarked) [compound 5]
pKi (Wistar rat heart PBR; non-radioactive analogues, vs 0.3 nM [3H]PK-11195, 50 mM Tris-HCl pH 7.4, 10 mM MgCl2, 15 minutes at 25° C., read-out: Ki): 8.83

CCN(CC)C(=O)C1CCCc2c1c1c(F)cccc1n2CC[18F] (centres unmarked) [compound 10]
Brain 2 min [1]: 0.50 % ID/g
OB 30 min ([1]; 30 min after injection): 0.51 % ID/g

CN(Cc1ccccc1)C(=O)C1CCCc2c1c1ccccc1n2CC[18F] (centres unmarked) [compound 7]
pKi (Wistar rat heart PBR): 8.90
Brain 2 min [1]: 0.55 % ID/g
OB 30 min ([1]; 30 min after injection): 0.34 % ID/g
OB:Str 30 min ([1]; ratio olfactory bulb:striatum, 30 min after injection, Wistar rats): 3.40

O=C(C1CCCc2c1c1ccccc1n2CC[18F])N1CCCCC1 (centres unmarked) [compound 6]
pKi (Wistar rat heart PBR): 7.74

CCN(CC)C(=O)C1CCCc2c1c1cc(F)ccc1n2CC[18F] (centres unmarked) [compound 9]
pKi (Wistar rat heart PBR): 8.42
Brain 2 min [1]: 0.56 % ID/g
OB 30 min ([1]; 30 min after injection): 0.41 % ID/g
